This note sets out measurements from patent US20190225650A1, “PEPTIDOMIMETIC MACROCYCLES AND USE THEREOF IN REGULATING HIF1ALPHA” (AILERON THERAPEUTICS, INC., priority 2013, published 2019).

Bridge positions count the residues as written; N and C are the ends. Square brackets hold non-standard residues; d marks the D form. Peptide text beside a SMILES is read from it. R8 = C=CCCCCCC[C@@](C)(N)C(=O)O; S5 = C=CCCC[C@](C)(N)C(=O)O; Nle = CCCC[C@H](N)C(=O)O

Usually IC50 stands for the point on the concentration scale where inhibition reaches its midpoint. The term EC50 denotes the midpoint of the concentration-response curve.

The target in assay [1] is T1, flag-tagged HIF1α (AA 786-826) / His6-tagged p300 (AA 323-423) complex (Homo sapiens, UniProt Q09472).
T1 construct: His6-tagged p300 (AA 323-423); made in house; host or cells: E. coli (pETDuet vector)
In words: HIF1α p300 displacement assay (TR FRET, +CHAPS). The class given is binding. Conditions: read-out: IC50 (nM) (HIF1α_p300 Displacement + CHAPS). In a few lines:
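In this TR-FRET displacement format, peptides compete HIF1α C-terminal transactivation domain off p300-CH. They were preincubated 1 h at room temperature with 300 nM complex in HEPES pH 7.4/NaCl buffer with 7.5 mM CHAPS and 1 mM DTT. Anti-His-D2 (4 nM) and anti-Flag-K (0.5 μM) followed for 2 h, and a one-site fit of the fluorescence ratio gave IC50.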
For orientation: TR-FRET usually uses a lanthanide donor and a delayed reading to cut background.

The test system of assay [2] is HRE-bla ME-180 cells. In words: Reporter gene assay (HRE-bla ME-180 HIF reporter, GeneBLAzer). It counts as cell-based, human. Conditions: for EC50: 24 hour normoxia. In outline:
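A FRET β-lactamase readout of HIF transcription was used. After compound treatment in 0.3% DMSO/media under normoxic conditions, 20 μl of 6× LiveBLAzer-FRET B/G (CCF4-AM) substrate was added. Plates sat 3 hr at room temperature in the dark and were read at 409 Ex/460Em and 409Ex/530Em on a Synergy 2. Inhibition was compared against DMSO vehicle controls, with chetomin as positive control.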
A general note: Reporter assays use an easily measured gene product as a stand-in for the process of interest.

Assay [3] relates to HRE-bla ME-180 cells. In words: Cell proliferation assay (viability, MTT, 1% FBS). It counts as cell-based, human. In outline: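 Viable cell number was measured with the CellTiter 96 (MTT) kit after compounds were applied for a 16 h normoxic (21% O2) pretreatment, followed by further normoxic or hypoxic (1% O2) culture. Cells: 2×10^4 ME-180 per well, Opti-MEM + 1% FBS, 0.5% DMSO vehicle.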

As to `CCCC[C@H](NC(=O)[C@H](CCC(=O)O)NC(=O)[C@]1(C)CCCC=CCCCCCC[C@@](C)(NC(=O)[C@H](CCC(=O)O)NC(=O)[C@H](C)NC(=O)[C@@H](NC(=O)[C@H](CC(N)=O)NC(=O)[C@@H](NC(=O)[C@H](CCC(N)=O)NC(=O)[C@]2(C)CCCC=CCCC[C@](C)(NC(=O)[C@H](CC(C)C)NC(=O)[C@H](CCC(=O)O)NC(=O)[C@H](CCC(=O)O)NC(=O)CNC(=O)[C@H](CCC(N)=O)NC(=O)[C@H](CC(C)C)NC(=O)[C@H](CC(C)C)NC(C)=O)C(=O)N[C@@H](CCCNC(=N)N)C(=O)N[C@@H](C)C(=O)N[C@@H](CC(C)C)C(=O)N2)C(C)C)[C@@H](C)CC)C(=O)N[C@@H](C(C)C)C(=O)N[C@@H](CC(C)C)C(=O)N[C@@H](CCCC)C(=O)N[C@@H](CO)C(=O)N[C@@H](CC(C)C)C(=O)N[C@@H](C(C)C)C(=O)N1)C(N)=O` [SP-365] (Ac-LLQGEEL[S5]RAL[S5]QVNIAE[R8]VL[Nle]SLV[S5]E[Nle]-NH2; staple 8-12, 19-26), the IC50 in assay [1] is more than 700 nM. Also, in the assay with HRE-bla ME-180 cells [2], the “18 h Avg % max inhibition at top conc (HIF Rptr-24 hrs normoxia) (μM)” value (“18 h Avg % max inhibition at top conc” for short) was “+++ (≤25 but <50: +++)” and the concentration giving a half-maximal response (EC50) is more than 30 µM. Moreover, the “Viability 1% FBS AVG (MTT V3-24 hr Normoxia) (μM)” value (“Viability 1% FBS AVG” below) in the assay on HRE-bla ME-180 cells [3] is recorded as “++++ (≥30: ++++)”.
Consider `CC[C@H](C)[C@H](NC(=O)[C@H](CCCNC(=N)N)NC(=O)[C@H](CC(=O)O)NC(=O)[C@H](CC(C)C)NC(=O)[C@H](C)NC(=O)[C@H](CCSC)NC(=O)[C@]1(C)CCCC=CCCC[C@](C)(NC(=O)[C@H](CCSC)NC(=O)[C@H](CC(C)C)NC(=O)[C@@H](NC(=O)[C@H](CCCCN)NC(=O)[C@H](CCC(=O)O)NC(=O)[C@H](CC(=O)O)NC(=O)[C@@H](NC(=O)[C@H](Cc2ccccc2)NC(C)=O)[C@@H](C)CC)C(C)C)C(=O)N[C@@H](CC(C)C)C(=O)N[C@@H](C(C)C)C(=O)N[C@@H]([C@@H](C)CC)C(=O)N1)C(N)=O` [SP-283] (Ac-FIDEKVLM[S5]LVI[S5]MALDRI-NH2; staple 9-13), for which the IC50 in assay [1] is more than 700 nM. Moreover, in the assay with HRE-bla ME-180 cells [2], the “18 h Avg % max inhibition at top conc” value is reported as “+++ (≤25 but <50: +++)” and the half-maximal effective concentration (EC50) was more than 30 µM. Besides, the “Viability 1% FBS AVG” value in the assay with HRE-bla ME-180 cells [3] was “++++ (≥30: ++++)”.
On to `CC[C@H](C)[C@H](NC(=O)[C@H](Cc1ccccc1)NC(C)=O)C(=O)N[C@@H](CC(=O)O)C(=O)N[C@@H](CCC(=O)O)C(=O)N[C@]1(C)CCCCCCC=CCCC[C@@](C)(C(=O)N[C@@H](CCC(=O)O)C(=O)N[C@@H](CCSC)C(=O)N[C@@H](C)C(=O)N[C@@H](CC(C)C)C(N)=O)NC(=O)[C@H](C(C)C)NC(=O)[C@H](CC(C)C)NC(=O)[C@H](CO)NC(=O)[C@H](CCSC)NC(=O)[C@H](CC(C)C)NC(=O)[C@H](C(C)C)NC1=O` [SP-177] (Ac-FIDE[R8]VLMSLV[S5]EMAL-NH2; staple 5-12), for which the IC50 in assay [1] lay in the range of 400 to 700 nM. Besides, in the assay on HRE-bla ME-180 cells [2], the “18 h Avg % max inhibition at top conc” value is “++++ (≥50: ++++)” and the EC50 was 5 to 15 µM. The “Viability 1% FBS AVG” value in the assay with HRE-bla ME-180 cells [3] was “+++ (≤15 but <30: +++)”.
As to `CCCC[C@H](NC(=O)[C@H](CCC(=O)O)NC(=O)[C@@H](NC(=O)[C@@H](NC(=O)[C@H](CC(C)C)NC(=O)[C@]1(C)CCCC=CCCC[C@](C)(NC(=O)[C@H](CCC(=O)O)NC(=O)[C@H](CC(=O)O)NC(=O)[C@@H](NC(=O)[C@H](Cc2ccccc2)NC(C)=O)[C@@H](C)CC)C(=O)N[C@@H](CC(N)=O)C(=O)N[C@@H](CC(C)C)C(=O)N[C@@H](CCCC)C(=O)N1)C(C)C)[C@@H](C)CC)C(=O)N[C@@H](C)C(=O)N[C@@H](CC(C)C)C(N)=O` [SP-141] (Ac-FIDE[S5]NL[Nle][S5]LVIE[Nle]AL-NH2; staple 5-9), the IC50 in assay [1] was in the range of 400 to 700 nM. Moreover, in the assay on HRE-bla ME-180 cells [2], the “18 h Avg % max inhibition at top conc” value was “++++ (≥50: ++++)” and the half-maximal effective concentration (EC50) is 15 to 30 µM. Also, the “Viability 1% FBS AVG” value in the assay with HRE-bla ME-180 cells [3] is listed as “++ (≤5 but <15: ++)”.
The like results for `CCCC[C@H](NC(=O)[C@H](C)NC(=O)[C@]1(C)CCCC=CCCCCCC[C@@](C)(NC(=O)[C@H](CCC(=O)O)NC(=O)[C@H](CC(=O)O)NC(=O)[C@@H](NC(=O)[C@H](Cc2ccccc2)NC(C)=O)[C@@H](C)CC)C(=O)N[C@@H](C(C)C)C(=O)N[C@@H](CC(C)C)C(=O)N[C@@H](CCCC)C(=O)N[C@@H](CO)C(=O)N[C@@H](CC(C)C)C(=O)N[C@@H](C(C)C)C(=O)N1)C(=O)N[C@@H](C)C(=O)N[C@@H](CC(C)C)C(N)=O` [SP-196] (Ac-FIDE[R8]VL[Nle]SLV[S5]A[Nle]AL-NH2; staple 5-12) were, in that order, 200 to 400 nM, “++++ (≥50: ++++)”, not above 5 µM and “++++ (≥30: ++++)”.
The like results for `CCCC[C@H](NC(=O)[C@H](Cc1ccccc1)NC(=O)[C@@H](NC(=O)[C@H](C)NC(=O)[C@H](CCC(N)=O)NC(=O)[C@H](CC(=O)O)NC(=O)[C@@H](NC(=O)[C@H](Cc1ccccc1)NC(C)=O)[C@@H](C)CC)C(C)C)C(=O)N[C@@]1(C)CCCC=CCCC[C@@](C)(C(=O)N[C@@H](Cc2c[nH]cn2)C(=O)N[C@@H](C)C(=O)N[C@@H](CC(C)C)C(=O)N[C@@H](CC(C)C)C(N)=O)NC(=O)[C@H]([C@@H](C)CC)NC(=O)[C@H](C(C)C)NC(=O)[C@H](CC(C)C)NC1=O` [SP-258] (Ac-FIDQAVF[Nle][S5]LVI[S5]HALL-NH2; staple 9-13) were, in that order, more than 700 nM, “+++ (≤25 but <50: +++)”, 5 to 15 µM and “++ (≤5 but <15: ++)”.
The like results for `CCCC[C@H](NC(=O)[C@H](CC(C)C)NC(=O)[C@@H](NC(=O)[C@H](CCC(=O)O)NC(=O)[C@H](CCC(=O)O)NC(=O)[C@H](CC(=O)O)NC(=O)[C@@H](NC(=O)[C@H](Cc1ccccc1)NC(C)=O)[C@@H](C)CC)C(C)C)C(=O)N[C@@]1(C)CCCC=CCCC[C@@](C)(C(=O)N[C@@H](CCCC)C(=O)N[C@@H](C)C(=O)N[C@@H](Cc2ccccc2)C(N)=O)NC(=O)[C@H]([C@@H](C)CC)NC(=O)[C@H](C(C)C)NC(=O)[C@H](CC(C)C)NC1=O` [SP-220] (Ac-FIDEEVL[Nle][S5]LVI[S5][Nle]AF-NH2; staple 9-13) were, in that order, more than 700 nM, “+ (<10: +)”, more than 30 µM and “++++ (≥30: ++++)”.
Regarding `CCCC[C@H](NC(=O)[C@H](CCC(=O)O)NC(=O)[C@@H](NC(=O)[C@@H](NC(=O)[C@H](CC(C)C)NC(=O)[C@]1(C)CCCC=CCCC[C@](C)(NC(=O)[C@H](CCCNC(=N)N)NC(=O)[C@H](CC(=O)O)NC(=O)[C@@H](NC(=O)[C@H](Cc2ccccc2)NC(C)=O)[C@@H](C)CC)C(=O)N[C@@H](C(C)C)C(=O)N[C@@H](CC(C)C)C(=O)N[C@@H](CCCC)C(=O)N1)C(C)C)[C@@H](C)CC)C(=O)N[C@@H](C)C(=O)N[C@@H](CC(C)C)C(N)=O` [SP-156] (Ac-FIDR[S5]VL[Nle][S5]LVIE[Nle]AL-NH2; staple 5-9), the half-maximal inhibitory concentration (IC50) in assay [1] was in the range of 200 to 400 nM. In the assay with HRE-bla ME-180 cells [2], the “18 h Avg % max inhibition at top conc” value is listed as “++ (≤10 but <25: ++)” and the EC50 was more than 30 µM. Moreover, the “Viability 1% FBS AVG” value in the assay on HRE-bla ME-180 cells [3] is recorded as “++++ (≥30: ++++)”.
The like results for `CC[C@H](C)[C@H](NC(=O)[C@H](Cc1ccccc1)NC(C)=O)C(=O)N[C@@H](CC(=O)O)C(=O)N[C@@H](CCC(=O)O)C(=O)N[C@@H](CCC(=O)O)C(=O)N[C@H](C(=O)N[C@@H](CC(C)C)C(=O)N[C@@H](CCSC)C(=O)N[C@@]1(C)CCCC=CCCC[C@@](C)(C(=O)N[C@@H](CCSC)C(=O)N[C@@H](C)C(=O)N[C@@H](Cc2ccccc2)C(N)=O)NC(=O)[C@H]([C@@H](C)CC)NC(=O)[C@H](C(C)C)NC(=O)[C@H](CC(C)C)NC1=O)C(C)C` [SP-226] (Ac-FIDEEVLM[S5]LVI[S5]MAF-NH2; staple 9-13) were, in that order, 400 to 700 nM, “++ (≤10 but <25: ++)”, more than 30 µM and “++++ (≥30: ++++)”.
The like results for `CCCC[C@H](NC(=O)[C@H](CCC(=O)O)NC(=O)[C@]1(C)CCCC=CCCCCCC[C@@](C)(NC(=O)[C@H](CCC(=O)O)NC(=O)[C@H](CC(=O)O)NC(=O)[C@@H](NC(=O)[C@H](CC(N)=O)NC(=O)[C@@H](NC(=O)[C@H](CCC(N)=O)NC(=O)[C@H](CC(=O)O)NC(=O)[C@H](CC(C)C)NC(=O)[C@]2(C)CCCC=CCCC[C@](C)(NC(=O)[C@H](CCC(=O)O)NC(=O)CNC(=O)[C@H](CCC(N)=O)NC(=O)[C@H](CC(C)C)NC(=O)[C@H](CC(C)C)NC(C)=O)C(=O)N[C@@H](CC(C)C)C(=O)N[C@@H](CC(C)C)C(=O)N[C@@H](CCCNC(=N)N)C(=O)N2)C(C)C)[C@@H](C)CC)C(=O)N[C@@H](C(C)C)C(=O)N[C@@H](CC(C)C)C(=O)N[C@@H](CCCC)C(=O)N[C@@H](CO)C(=O)N[C@@H](CC(C)C)C(=O)N[C@@H](C(C)C)C(=O)N1)C(=O)NCC(N)=O` [SP-311] (Ac-LLQGE[S5]LLR[S5]LDQVNIDE[R8]VL[Nle]SLV[S5]E[Nle]G-NH2; staple 6-10, 19-26) were, in that order, more than 700 nM, “++ (≤10 but <25: ++)”, more than 30 µM and “++++ (≥30: ++++)”.
